Data published in PubChem BioAssay AID248 (DTP/NCI, 2004).
Inconclusive results and toxic doses are left out. Cut-off read from the data, not from the text of the source: active = T/C of 150% or more; inactive = T/C below 125%.

System: L1210 leukemia ip in BDF1 mice, survival T/C
Assay: NCI In Vivo Anticancer Drug Screen. Data for tumor model L1210 Leukemia (intraperitoneal) in B6D2F1 (BDF1) mice
Settings: endpoint: mean survival time, higher = longer survival
Outline: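 Transplanted-tumor mice were given test agent; controls received vehicle only. Survival readings from the two groups were divided (treated over control).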

[1] = dose: 100.0 mg/kg/injection, schedule: Q01DX001 (ip), vehicle: saline
[2] = dose: 200.0 mg/kg/injection, schedule: Q01DX001 (ip), vehicle: saline
[3] = dose: 400.0 mg/kg/injection, schedule: Q01DX001 (ip), vehicle: saline
[4] = dose: 100.0 mg/kg/injection, schedule: Q04DX003 (ip), vehicle: Klucel (hydroxypropylcellulose) (HPC)
[5] = dose: 200.0 mg/kg/injection, schedule: Q04DX003 (ip), vehicle: Klucel (hydroxypropylcellulose) (HPC)
[6] = dose: 400.0 mg/kg/injection, schedule: Q04DX003 (ip), vehicle: Klucel (hydroxypropylcellulose) (HPC)
[7] = dose: 100.0 mg/kg/injection, schedule: Q04DX003 (ip), vehicle: saline with Tween-80

Measured: T/C

COc1cc2c(cc1OC)C(=O)N(C)CC2
inactive: dose: 100.0 mg/kg/injection, schedule: Q01DX009 (ip), vehicle: water 95 % of control | dose: 100.0 mg/kg/injection, schedule: Q04DX003 (ip), vehicle: water 97 % of control | dose: 200.0 mg/kg/injection, schedule: Q01DX009 (ip), vehicle: water 102 % of control | dose: 200.0 mg/kg/injection, schedule: Q04DX003 (ip), vehicle: water 97 % of control | dose: 400.0 mg/kg/injection, schedule: Q04DX003 (ip), vehicle: water 100 % of control

O=C(CCCC(=O)N/N=C/c1ccc(I)cc1)N/N=C\c1ccc(I)cc1
inactive: dose: 50.0 mg/kg/injection, schedule: Q01DX001 (ip), vehicle: saline 100 % of control | [1] 93 % of control | [2] 93 % of control | [3] 97 % of control

NC(=O)C1=C(N)c2ccccc2C1c1ccccc1 (stereo unspecified)
inactive: [1] 101 % of control | [2] 97 % of control | [3] 97 % of control

CCCCCSc1nc(N)nc2nc[nH]c12
inactive: dose: 50.0 mg/kg/injection, schedule: Q01DX Z (ip), vehicle: methylcellulose (MC) 117 % of control | dose: 75.0 mg/kg/injection, schedule: Q01DX001 (ip), vehicle: saline 106 % of control | dose: 135.0 mg/kg/injection, schedule: Q01DX009 (ip), vehicle: saline 98 % of control | dose: 150.0 mg/kg/injection, schedule: Q01DX001 (ip), vehicle: saline 109 % of control | dose: 200.0 mg/kg/injection, schedule: Q01DX009 (ip), vehicle: saline 104 % of control | dose: 200.0 mg/kg/injection, schedule: Q01DX Z (ip), vehicle: methylcellulose (MC) 104 % of control | dose: 300.0 mg/kg/injection, schedule: Q01DX001 (ip), vehicle: saline 101 % of control | dose: 300.0 mg/kg/injection, schedule: Q01DX009 (ip), vehicle: saline 119 % of control

Clc1ccccc1-n1cc(-c2ccccc2)nn1
inactive: dose: 100.0 mg/kg/injection, schedule: Q04DX002 (ip), vehicle: Klucel (hydroxypropylcellulose) (HPC) 114 % of control | dose: 200.0 mg/kg/injection, schedule: Q04DX002 (ip), vehicle: Klucel (hydroxypropylcellulose) (HPC) 108 % of control | dose: 400.0 mg/kg/injection, schedule: Q04DX002 (ip), vehicle: Klucel (hydroxypropylcellulose) (HPC) 108 % of control

CCOc1ccc2nc(/C=C/c3ccccc3)ccc2c1
inactive: dose: 200.0 mg/kg/injection, schedule: Q01DX001 (ip), vehicle: carboxymethylcellulose (CMC) 89 % of control | dose: 400.0 mg/kg/injection, schedule: Q01DX001 (ip), vehicle: carboxymethylcellulose (CMC) 101 % of control

O=C1OC(OC(=O)c2ccccc2)C(Br)=C1Br (stereo unspecified)
inactive: [4] 98 % of control | [5] 104 % of control

COC(=O)Nc1ccc(N)c(NC(=O)OC)n1
inactive: dose: 100.0 mg/kg/injection, schedule: Q01DX009 (ip), vehicle: Klucel (hydroxypropylcellulose) (HPC) 92 % of control | [4] 106 % of control | dose: 200.0 mg/kg/injection, schedule: Q01DX009 (ip), vehicle: Klucel (hydroxypropylcellulose) (HPC) 89 % of control | [5] 99 % of control | dose: 400.0 mg/kg/injection, schedule: Q01DX009 (ip), vehicle: Klucel (hydroxypropylcellulose) (HPC) 87 % of control | [6] 100 % of control

Cc1ncc(CSCC(=O)O)c(N)n1
inactive: [4] 103 % of control | [5] 100 % of control | [6] 103 % of control

COc1ccccc1-n1c(O)c(N=Nc2ccc(Cl)cc2)c(=O)n(-c2ccccc2OC)c1=S
inactive: dose: 100.0 mg/kg/injection, schedule: Q01DX001 (ip), vehicle: Klucel (hydroxypropylcellulose) (HPC) 104 % of control | dose: 200.0 mg/kg/injection, schedule: Q01DX001 (ip), vehicle: Klucel (hydroxypropylcellulose) (HPC) 110 % of control

COc1ccc(Nc2ccc3c4c(cccc24)C(=O)N(c2ccc(OC)cc2)C3=O)cc1
inactive: dose: 100.0 mg/kg/injection, schedule: Q04DX002 (ip), vehicle: saline with Tween-80 92 % of control | dose: 200.0 mg/kg/injection, schedule: Q04DX002 (ip), vehicle: saline with Tween-80 95 % of control | dose: 400.0 mg/kg/injection, schedule: Q04DX002 (ip), vehicle: saline with Tween-80 92 % of control

Clc1nc(Cl)n2c(Cl)cncc12
inactive: dose: 25.0 mg/kg/injection, schedule: Q04DX003 (ip), vehicle: saline with Tween-80 96 % of control | dose: 50.0 mg/kg/injection, schedule: Q04DX003 (ip), vehicle: saline with Tween-80 103 % of control | [7] 96 % of control

O=C1C=CC(=O)N1c1nccs1
inactive: [7] 95 % of control | dose: 200.0 mg/kg/injection, schedule: Q04DX003 (ip), vehicle: saline with Tween-80 90 % of control | dose: 400.0 mg/kg/injection, schedule: Q04DX003 (ip), vehicle: saline with Tween-80 95 % of control

Cc1cc[n+](CCCCCCCCCO)cc1
inactive: [1] 103 % of control

FC(F)C(F)(F)C(F)(F)C(F)(F)C(F)(F)C(F)(F)C(F)(F)F
inactive: [1] 97 % of control | [2] 100 % of control | [3] 95 % of control
